Assay: xn = mol fraction of the nth substance listed

CCCCCCCCCCCC[N+](C)(C)Cc1ccccc1.[Cl-] + CC(C)[C@H](N)C(=O)O + O
electrical conductivity [S/m], 101 kPa
Settings | 293.15 K | 298.15 K | 303.15 K | 308.15 K | 313.15 K
x2 = 0.0008891, x1 = 0.0003 | 0.0839 | 0.0943 | 0.106 | 0.118 | 0.132
x2 = 0.0008891, x1 = 0.000319 | 0.087 | 0.0977 | 0.11 | 0.123 | 0.137
x2 = 0.0008892, x1 = 0.0001722 | 0.0627 | 0.0699 | 0.0776 | 0.0856 | 0.0943
x2 = 0.0008892, x1 = 0.0001982 | 0.0677 | 0.0756 | 0.0841 | 0.0932 | 0.103
x2 = 0.0008892, x1 = 0.000222 | 0.0717 | 0.0802 | 0.0894 | 0.0993 | 0.11
x2 = 0.0008892, x1 = 0.0002429 | 0.0751 | 0.0841 | 0.0939 | 0.104 | 0.116
x2 = 0.0008892, x1 = 0.0002636 | 0.0783 | 0.0878 | 0.0982 | 0.109 | 0.122
x2 = 0.0008892, x1 = 0.0002822 | 0.0812 | 0.0912 | 0.102 | 0.114 | 0.127
x2 = 0.0008893, x1 = 7.858e-05 | 0.0307 | 0.0345 | 0.0383 | 0.0422 | 0.046
x2 = 0.0008893, x1 = 9.958e-05 | 0.0385 | 0.0432 | 0.0479 | 0.0528 | 0.0577
x2 = 0.0008893, x1 = 0.0001218 | 0.0467 | 0.0524 | 0.058 | 0.064 | 0.0701
x2 = 0.0008893, x1 = 0.0001461 | 0.0553 | 0.0619 | 0.0686 | 0.0756 | 0.0827
x2 = 0.0008894, x1 = 5.704e-05 | 0.0227 | 0.0255 | 0.0283 | 0.0312 | 0.034
x2 = 0.001757, x1 = 5.785e-05 | 0.0228 | 0.0256 | 0.0285 | 0.0315 | 0.0345
x2 = 0.001757, x1 = 7.859e-05 | 0.0304 | 0.0341 | 0.0379 | 0.0418 | 0.0458
x2 = 0.001757, x1 = 0.0001001 | 0.0382 | 0.0428 | 0.0475 | 0.0528 | 0.0574
x2 = 0.001757, x1 = 0.000121 | 0.0457 | 0.0512 | 0.0568 | 0.0628 | 0.0689
x2 = 0.001757, x1 = 0.0001443 | 0.0537 | 0.0601 | 0.0666 | 0.0735 | 0.0809
x2 = 0.001757, x1 = 0.0001688 | 0.0607 | 0.0676 | 0.075 | 0.0828 | 0.0914
x2 = 0.001757, x1 = 0.0001945 | 0.0657 | 0.0733 | 0.0815 | 0.0905 | 0.1
x2 = 0.001757, x1 = 0.0002205 | 0.07 | 0.0783 | 0.0872 | 0.0971 | 0.108
x2 = 0.001757, x1 = 0.0002437 | 0.0737 | 0.0826 | 0.0919 | 0.103 | 0.114
x2 = 0.001757, x1 = 0.0002647 | 0.0773 | 0.0864 | 0.0965 | 0.108 | 0.12
x2 = 0.001757, x1 = 0.0002841 | 0.0803 | 0.09 | 0.101 | 0.112 | 0.126
x2 = 0.001757, x1 = 0.0003021 | 0.0834 | 0.0937 | 0.105 | 0.117 | 0.13
x2 = 0.001757, x1 = 0.0003234 | 0.0872 | 0.0978 | 0.11 | 0.122 | 0.136

CCCC[N+](CCCC)(CCCC)CCCC.[Cl-] + OCC(O)CO
100 kPa, x1 = 0.333
Settings | electrical conductivity [S/m] | viscosity [mPa·s]
293.15 K | 0.0303 | 870
303.15 K | 0.0527 | 500
313.15 K | 0.0885 | 298
323.15 K | 0.144 | 184
333.15 K | 0.228 | 117

CCCn1cc[n+](C)c1C.O=S(=O)([N-]S(=O)(=O)C(F)(F)F)C(F)(F)F + O=C1CCCO1
100 kPa, frequency 0.005 MHz
Settings | electrical conductivity [S/m]
293.15 K, x2 = 0.2006 | 0.28
293.15 K, x2 = 0.6992 | 0.992
293.15 K, x2 = 0.8002 | 1.19
293.15 K, x2 = 0.8999 | 1.2
298.15 K, x2 = 0 | 0.265
303.15 K, x2 = 0.1289 | 0.395
303.15 K, x2 = 0.8508 | 1.5
308.15 K, x2 = 0.2006 | 0.537
308.15 K, x2 = 0.6992 | 1.41
308.15 K, x2 = 0.9495 | 1.11
313.15 K, x2 = 0.6992 | 1.57
313.15 K, x2 = 0.8508 | 1.77
313.15 K, x2 = 0.8999 | 1.68
318.15 K, x2 = 0.4952 | 1.32
323.15 K, x2 = 0.2006 | 0.864
